We go through 28 compounds from patent publication US7276519B2, “Thieno[3,2-b]pyridine-6-carbonitriles and thieno[2,3-b]pyridine-5-carbonitriles as protein kinase inhibitors” (Wyeth, priority 2002, dated 2007).

Read-outs that look alike come from different tables or passages of the source.

Data set [1] deals with Rat2 fibroblasts stably transformed with v-Src/Hu c-Src fusion gene. Put plainly: Anchorage independent Src-transformed fibroblast proliferation assay. It counts as cell-based, rat. Particulars: for IC50: suspension growth, MTS readout Day 5; for inhibition at 100 µM: Rat2, Table 1, read-out: Src cells % inh at 100 μM. The protocol: Anchorage Independent Src-Transformed Fibroblast Proliferation Assay Rat2 fibroblasts stably transformed with a plasmid containing a CMV promotor controlled v-Src/Hu c-Src fusion gene in which the catalytic domain of human c-Src was inserted in place of the v-Src catalytic domain in the v-Src gene are used for the measurement of src dependent suspension growth. […] Multiple entries for a given compound indicate that it was tested multiple times.

Where [2] appears, read: Rattus norvegicus, Rat2, 120 h, Table 1, read-out: Src cells IC50.
The mark [3] stands for this setting: Table 1, read-out: Src cells IC50.

The compound `COc1cc(Nc2c(C#N)cnc3cc(-c4ccc(CO)cc4)sc23)c(Cl)cc1Cl` [Example 41, 7-[(2,4-Dichloro-5-methoxyphenyl)amino]-2-[4-(hydroxymethyl)phenyl]thieno[3,2-b]pyridine-6-carbonitrile] displayed a melting point of 239 to 240 °C. For the same compound, the half-maximal inhibitory concentration (IC50) in data set [1] (setting [2]) is 0.56 µM.

Compound `COc1cc(Nc2c(C#N)cnc3cc(-c4cc5ccccc5o4)sc23)c(Cl)cc1Cl` [Example 24, 2-(1-Benzofuran-2-yl)-7-[(2,4-dichloro-5-methoxyphenyl)amino]thieno[3,2-b]pyridine-6-carbonitrile] gave a melting point of 281 to 282 °C. Besides, the concentration for half-maximal inhibition (IC50) in data set [1] (setting [2]) is 3.8 µM.

Take `Cn1ccnc1Sc1ccc(Nc2c(C#N)cnc3sccc23)cc1Cl` [Example 6, 4-[(3-Chloro-4-[(1-methyl-1H-imidazol-2-yl)thio]phenyl)amino]thieno[2,3-b]pyridine-5-carbonitrile]: the melting point was > 240 °C. For the same compound, the inhibition at 100 µM in data set [1] (Rattus norvegicus, at 100 μM) worked out at 3%.

The compound `COc1cc(Nc2c(C#N)cnc3cc(-c4ccc(C=O)cc4)sc23)cc(OC)c1OC` [Example 55, 2-(4-Formylphenyl)-7-[(3,4,5-trimethoxyphenyl)amino]thieno[3,2-b]pyridine-6-carbonitrile] displayed a melting point of 268 to 270 °C. Further, in data set [1] (Rattus norvegicus, at 100 μM), the inhibition at 100 µM came out at 97%.

Compound `COc1cc(Nc2c(C#N)cnc3cc(-c4cccc(CN5CCOCC5)c4)sc23)c(Cl)cc1Cl` [Example 26, 7-[(2,4-Dichloro-5-methoxyphenyl)amino]-2-[3-(morpholin-4-ylmethyl)phenyl]thieno[3,2-b]pyridine-6-carbonitrile] registered a melting point of 205 to 207 °C. Besides, the IC50 in data set [1] (setting [2]) was 1 µM.

`COc1cc(Nc2c(C#N)cnc3cc(I)sc23)cc(OC)c1OC` [Example 47, 2-Iodo-7-[(3,4,5-trimethoxyphenyl)amino]thieno[3,2-b]pyridine-6-carbonitrile]: the melting point lay in the range of 254 to 256 °C. For the same compound, in data set [1] (Rattus norvegicus, at 100 μM), the inhibition at 100 µM was determined as 74%.

`COc1cc(Nc2c(C#N)cnc3cc(-c4ccc(CN5CCC(O)CC5)cc4)sc23)c(Cl)cc1Cl` [Example 40, 7-[(2,4-Dichloro-5-methoxyphenyl)amino]-2-{4-[(4-hydroxypiperidin-1-yl)methyl]phenyl}thieno[3,2-b]pyridine-6-carbonitrile] displayed a melting point of 149 to 150 °C. Besides, the half-inhibitory concentration (IC50) in data set [1] (setting [2]) came out at 0.71 µM. Also, in data set [1] (setting [3]), the 50% inhibitory concentration (IC50) was determined as 0.43 µM.

With `COc1cc(Nc2c(C#N)cnc3cc(C#CCN(C)C)sc23)c(Cl)cc1Cl` [Example 23, 7-[(2,4-Dichloro-5-methoxyphenyl)amino]-2-[3-(dimethylamino)prop-1-ynyl]thieno[3,2-b]pyridine-6-carbonitrile], the melting point lay in the range of 164 to 166 °C. In addition, in data set [1] (setting [2]), the 50% inhibitory concentration (IC50) came out at 5.6 µM.

Compound `COc1cc(Nc2c(C#N)cnc3cc(C#C[Si](C)(C)C)sc23)c(Cl)cc1Cl` [Example 32, 7-[(2,4-Dichloro-5-methoxyphenyl)amino]-2-[(trimethylsilyl)ethynyl]thieno[3,2-b]pyridine-6-carbonitrile] gave a melting point of 169 to 171 °C. Moreover, in data set [1] (Rattus norvegicus, Rat2, 120 h, read-out: Src cells IC50 μM, Table 1), the IC50 was determined as 1.5 µM.

For `COc1cc(Nc2c(C#N)cnc3cc(-c4csc(C5OCCO5)c4)sc23)c(Cl)cc1Cl` [Example 36, 7-[(2,4-Dichloro-5-methoxyphenyl)amino]-2-[5-(1,3-dioxolan-2-yl)thien-3-yl]thieno[3,2-b]pyridine-6-carbonitrile], the melting point is 219 to 221 °C. In data set [1] (setting [2]), the concentration for half-maximal inhibition (IC50) turned out to be 1.6 µM.

On to `COc1cc(Nc2c(C#N)cnc3cc(C#CCN4CCN(C)CC4)sc23)cc(OC)c1OC` [Example 57, 2-[3-(4-Methylpiperazin-1-yl)prop-1-ynyl]-7-[(3,4,5-trimethoxyphenyl)amino]thieno[3,2-b]pyridine-6-carbonitrile], for which the melting point was 180 to 182 °C. Besides, the inhibition at 100 µM in data set [1] (Rattus norvegicus, at 100 μM) came to 70%.

Turning to `COc1cc(Nc2c(C#N)cnc3cc(C#Cc4ccccn4)sc23)c(Cl)cc1Cl` [Example 22, 7-[(2,4-Dichloro-5-methoxyphenyl)amino]-2-(pyridin-2-ylethynyl)thieno[3,2-b]pyridine-6-carbonitrile], the melting point lay within 237 to 239 °C. In data set [1] (setting [2]), the IC50 was found to be 1 µM.

Take `CN1CCN(Cc2ccc(-c3cc4ncc(C#N)c(Nc5ccc(Oc6ccccc6)cc5)c4s3)cc2)CC1` [Example 44, 2-[4-(4-Methylpiperazin-1-ylmethyl)phenyl]-7-[(4-phenoxyphenyl)amino]thieno[3,2-b]pyridine-6-carbonitrile]: the melting point is 199 to 201 °C. Besides, the half-inhibitory concentration (IC50) in data set [1] (setting [2]) turned out to be 2.4 µM.

On to `N#Cc1cnc2cc(Br)sc2c1Nc1ccc(Oc2ccccc2)cc1` [Example 48, 2-Bromo-7-[(4-phenoxyphenyl)amino]thieno[3,2-b]pyridine-6-carbonitrile], for which the melting point was in the range of 248 to 250 °C. For the same compound, in data set [1] (Rattus norvegicus, at 100 μM), the inhibition at 100 µM was 30%.

Consider `COc1cc(Nc2c(C#N)cnc3sc(C#CCN4CCN(C)CC4)cc23)c(Cl)cc1Cl` [Example 51, 4-[(2,4-Dichloro-5-methoxyphenyl)amino]-2-[3-(4-methylpiperazin-1-yl)prop-1-ynyl]thieno[2,3-b]pyridine-5-carbonitrile], for which the melting point is 175 °C (dec.). Also, the IC50 in data set [1] (setting [2]) came out at 9.9 µM.

Regarding `COc1cc(Nc2c(C#N)cnc3cc(C#Cc4cccnc4)sc23)c(Cl)cc1Cl` [Example 35, 7-[(2,4-Dichloro-5-methoxyphenyl)amino]-2-(pyridin-3-ylethynyl)thieno[3,2-b]pyridine-6-carbonitrile], the melting point lay in the range of 249 to 250 °C. In addition, the half-maximal inhibitory concentration (IC50) in data set [1] (setting [2]) is 0.98 µM.

For the compound `COc1cc(Nc2c(C#N)cnc3cc(-c4cccc(C=O)c4)sc23)c(Cl)cc1Cl` [Example 25, 7-[(2,4-Dichloro-5-methoxyphenyl)amino]-2-(3-formylphenyl)thieno[3,2-b]pyridine-6-carbonitrile], the melting point was in the range of 262 to 263 °C. Moreover, the IC50 in data set [1] (setting [2]) was 1.1 µM.

Consider `N#Cc1cnc2ccsc2c1Oc1ccc(Cl)cc1Cl` [Example 11, 7-[(2,4-Dichlorophenoxy)]thieno[3,2-b]pyridine-6-carbonitrile], for which the melting point fell in the range of 158 to 160 °C. Also, the half-inhibitory concentration (IC50) in data set [1] (setting [2]) was determined as 23 µM.

Take `COc1cc(Nc2c(C#N)cnc3cc(-c4csc(C=O)c4)sc23)c(Cl)cc1Cl` [Example 37, 7-[(2,4-Dichloro-5-methoxyphenyl)amino]-2-(5-formylthien-3-yl)thieno[3,2-b]pyridine-6-carbonitrile]: the melting point fell in the range of 259 to 261 °C. In data set [1] (setting [2]), the IC50 worked out at 1.1 µM.

As for `N#Cc1cnc2ccsc2c1Nc1ccc(Cl)cc1Cl` [Example 10, 7-[(2,4-Dichlorophenyl)amino]thieno[3,2-b]pyridine-6-carbonitrile], the melting point was in the range of 198 to 200 °C. Moreover, in data set [1] (setting [2]), the concentration for half-maximal inhibition (IC50) was 39 µM.

For `COc1cc(Nc2c(C#N)cnc3cc(-c4ccc(CN5CCCCC5)cc4)sc23)c(Cl)cc1Cl` [Example 18, 7-[(2,4-Dichloro-5-methoxyphenyl)amino]-2-[4-(piperidin-1-ylmethyl)phenyl]thieno[3,2-b]pyridine-6-carbonitrile], the melting point fell in the range of 218 to 220 °C. In addition, the IC50 in data set [1] (setting [2]) came to 1 µM.

Regarding `COc1cc(Nc2c(C#N)cnc3sc(-c4ccc(C=O)cc4)cc23)c(Cl)cc1Cl` [Example 27, 4-[(2,4-Dichloro-5-methoxyphenyl)amino]-2-(4-formylphenyl)thieno[2,3-b]pyridine-5-carbonitrile], the melting point was > 240 °C. Further, the inhibition at 100 µM in data set [1] (Rattus norvegicus, at 100 μM) came out at 19%. The “Src cells % inh at 100 μM” value in data set [1] (Table 1, at 100 μM) stood at 28%.

For `N#Cc1cnc2cc(/C=C/c3ccncc3)sc2c1Nc1ccc(Oc2ccccc2)cc1` [Example 49, 7-[(4-Phenoxyphenyl)amino]-2-[(E)-2-pyridin-4-ylethenyl]thieno[3,2-b]pyridine-6-carbonitrile], the melting point was 240 to 241 °C. For the same compound, the inhibition at 100 µM in data set [1] (Rattus norvegicus, at 100 μM) turned out to be 14%.

As to `COc1cc(Nc2c(C#N)cnc3sc(C#Cc4cccnc4)cc23)c(Cl)cc1Cl` [Example 52, 4-[(2,4-Dichloro-5-methoxyphenyl)amino]-2-(pyridin-3-ylethynyl)thieno[2,3-b]pyridine-5-carbonitrile], the melting point is 191 °C (dec.). For the same compound, the inhibition at 100 µM in data set [1] (Rattus norvegicus, at 100 μM) is 61%.

On to `COc1cc(Nc2c(C#N)cnc3sc(CCCCO)cc23)cc(OC)c1OC` [Example 30, 2-(4-Hydroxybutyl)-4-[(3,4,5-trimethoxyphenyl)amino]-thieno[2,3-b]pyridine-5-carbonitrile], for which the melting point lay within 125 to 127 °C. For the same compound, the IC50 in data set [1] (setting [2]) amounted to 23 µM. In data set [1] (setting [3]), the IC50 worked out at 25 µM.

With `COc1cc(Nc2c(C#N)cnc3cc(/C=C/C(=O)N4CCN(C)CC4)sc23)c(Cl)cc1Cl` [Example 56, 7-[(2,4-Dichloro-5-methoxyphenyl)amino]-2-[(1E)-3-(4-methylpiperazin-1-yl)-3-oxoprop-1-enyl]thieno[3,2-b]pyridine-6-carbonitrile], the melting point lay in the range of 218 to 220 °C. The half-inhibitory concentration (IC50) in data set [1] (setting [2]) was found to be 3.93 µM. The IC50 in data set [1] (setting [3]) is 2.2 µM.

In turn, `COc1cc(Nc2c(C#N)cnc3sccc23)c(Cl)cc1Cl` [Example 5, 4-[(2,4-Dichloro-5-methoxyphenyl)amino]thieno[2,3-b]pyridine-5-carbonitrile] registered a melting point of 197 to 199 °C. For the same compound, the half-inhibitory concentration (IC50) in data set [1] (setting [2]) amounted to 5.6 µM.

Consider `COc1cc(Nc2c(C#N)cnc3cc(-c4ccc(C(N)=O)cc4)sc23)c(Cl)cc1Cl` [Example 20, 4-{6-Cyano-7-[(2,4-dichloro-5-methoxyphenyl)amino]thieno[3,2-b]pyridine-2-yl}benzamide], for which the melting point was > 300 °C. For the same compound, in data set [1] (setting [2]), the IC50 worked out at 1 µM.
